Here are results for 7 compounds from PMC11351550, “Synthesis, Cytotoxicity and Antioxidant Activity Evaluation of Some Thiazolyl–Catechol Compounds” (Antioxidants, 2024).

SMILES strings stand for the structures. Where a name gives a salt, the structure may show the parent alone.

Data set [1] deals with human pulmonary malignant cells (A549). The data set is described as follows: Alamar Blue cytotoxicity assay, A549 cells. It counts as cell-based. The procedure:
(§1) BJ cells were maintained in Dulbecco’s modified Eagle’s medium (DMEM) with low glucose (1 g/L), while the A549 cells were seeded in DMEM with high glucose (5 g/L). All media were supplemented with 10% fetal bovine serum (FBS) and 1% Penicillin/Streptomycin. […] Cellular media were refreshed every other day. Cells were either subcultured or used in experiments once they reached a confluency of 80–90%.
(§2) The cytotoxicity of the synthesized compounds was evaluated by Alamar Blue (AB) assays performed on both cell lines, A549 and BJ, after a 48 h exposure, as previously reported.
(§3) Briefly, approximately 7000 A549 cells and 4000 normal BJ cells were seeded in 100 µL cellular media in 96-well plates to achieve a confluency of 70–80% at the end of the experiment and left to attach overnight before exposure. […] Post-exposure, the media were removed, and the AB assay was performed, with cells being incubated with a 200 µM solution of resazurin for 4 h. The obtained fluorescence was measured at λexcitation = 530/25; λemission = 590/35.
(§4) The experiments included three biological replicates, each one including three technical replicates. The negative control (NC) consisted of cells exposed to a cell culture medium containing 0.2% DMSO and was used for data normalization (100%).
Background: The colour change of resazurin is a common sign of viable cells or microbes.

Data set [2] concerns normal human foreskin fibroblasts (BJ). Briefly: Alamar Blue cytotoxicity assay, BJ cells. It counts as cell-based. The note with it: Homo sapiens, Fibroblast; 48 h exposure, Alamar Blue. As for the experimental part: as §1, §2, §3, §4
A short description of data set [3]: Total Antioxidant Capacity (TAC) assay. The data set is classed as biochemical. As to conditions: 95 °C, 1.5 h, 695 nm. As for the experimental part: (§5) The stock solutions of the reference antioxidants (ascorbic acid, Trolox, EDTA-Na2) and compounds 3a–j were prepared by dissolving the solid powders in DMSO, obtaining 2 mM stock solutions. Following this, an additional set of solutions (0.2 mM) for each compound was obtained by dilution with DMSO. Absorption spectra of the tested compounds covering the range from 400 nm to 800 nm were recorded, indicating no absorption peaks near the wavelengths employed in the experiments. All measurements in the presented assays were made against blank samples. To quantify the activity of the compounds 3a–j, for the antiradical assays (DPPH and ABTS) and ferrous ion chelation, IC50 was calculated using Equation (1), while for the electron transfer assays (TAC, RP, FRAP and CUPRAC), the reference number of mole equivalent activity for each compound was calculated using Equation (2). (1) radical scavenging (%)=control absorbance−sample absorbance/control absorbance×100 (2) equivalents of control=sample absorbance/control absorbance
The Total Antioxidant Capacity (TAC) assay was conducted following the methodology outlined in our previous publication, which was based on initial reports from the literature. A volume of 10 mL of the reagent (0.6 M H2SO4, 28 mM Na3PO4 and 4 mM (NH4)6Mo7O24) and 1000 µL of the compound and standard solutions dispensed from the 2 mM stock solutions were mixed in sealed glass test tubes and incubated in a water bath at 95 °C for 1.5 h. After cooling the test tubes to room temperature, 1000 µL of each solution was diluted with 1000 µL of water. The absorbance of the solutions was then measured at λ = 695 nm.

The nature of data set [4]: DPPH radical-scavenging assay. The note with it: 30 min in the dark, 517 nm; read-out: IC50 against DPPH•. The data set is classed as biochemical. As for the experimental part: as §5
The DPPH˙ (2,2-diphenyl-1-picrylhydrazyl) radical-scavenging assay, initially reported by Brand-Williams et al., relies on transferring a hydrogen atom from the antioxidant substrate being analyzed to the stable violet radical of DPPH˙. This action converts DPPH˙ into a nonradical stable yellow compound. The reduction in absorbance of the DPPH˙ at λ = 517 nm corresponds to the quantity of neutralized reagent. To perform the DPPH assay, we took 50, 75, 100, 125, and 150 µL of each sample from their 0.2 mM stock solutions, then we adjusted the volumes with DMSO to ensure all samples reached a uniform final volume. These solutions were mixed with 1 mL of DPPH reagent and incubated in the dark for 30 min, as presented in literature reports.

Data set [5] can be described thus: CUPRAC (CUPric-Reducing Antioxidant Capacity) assay. The data set is classed as biochemical. As to conditions: 30 min, 450 nm. The procedure:
as §5
The electron-donating capacity of compounds was assessed using the CUPRAC (CUPric-Reducing Antioxidant Capacity) method. The protocol for this assay is a modification of the reports of Alam et al., Özyürek et al., and Apak et al.. Volumes of 250 µL of CuCl2 10 mM, 1 mL of ammonium acetate buffer 1 M, and 250 µL of 7.5 mM neocuproine in ethanol were mixed with 125 µL of samples and reference compound solutions (0.2 mM). The mixtures were shaken for 30 min in the dark; after that, their absorbance was determined spectrophotometrically at λ = 450 nm.

Data set [6] in a line: ABTS radical cation decolorization assay. The data set is classed as biochemical. As to conditions: 10 min, pH 7.4, 734 nm; read-out: IC50 against ABTS•+. As for the experimental part:
as §5
The decolorization assay of the green ABTS^•+ (2,2′-azinobis-(3-ethylbenzothiazoline-6-sulfonic acid) to ABTS, based on the report of Re et al., was conducted following our group’s published report. The chemical stability of the ABTS^•+ reagent prior to use was checked at λ = 734 nm over one hour, ensuring a consistent absorption (approximately equal to 0.7). The reagent was prepared in potassium phosphate buffer (0.1 M, pH = 7.4) and activated overnight using MnO2 [17]. In all cuvettes, we added 100 μL of the tested compound solutions (0.2 mM) in increasing concentrations up to 200 µL and 2000 µL of the ABTS^•+ reagent. The resulting mixtures were thoroughly shaken for 10 min at room temperature, in the absence of light. The optical absorbance of the resulting mixtures was then measured by spectrophotometry at λ = 734 nm.

Data set [7] can be described thus: Ferrous ion chelation assay (ferrozine). The data set is classed as biochemical. More on the design: key: - represents negligible activity. The procedure: as §5
To evaluate the ability of compounds to chelate ferrous ions, an assay was performed using an adaptation of Dinis et al.’s initial report. The solutions of the tested compounds (2 mM) were mixed well with 500 µL of FeSO4 (0.125 mM), and 500 µL of ferrozine 0.315 mM. After 10 min, the absorbance of the samples was determined spectrophotometrically at λ = 562 nm. EDTA-Na2 was used as a positive control, due to its exceptional ion chelation properties.

Data set [8] in a line: Reducing power (RP) assay. It counts as biochemical. The note with it: 50 °C, 20 min, pH 6.6. As for the experimental part: as §5
In the reducing power (RP) assay, the tested compounds performed the reduction of ferric ions from potassium ferricyanide, forming ferrocyanide, which gives a blue complex. The protocol followed is an adaptation of previously reported methodologies. In glass test tubes, 1000 µL of solutions containing compounds and standards measured from the 0.2 mM stock solutions were mixed with 400 µL of phosphate buffer (0.2 M, pH = 6.6) and 400 µL of K3[Fe(CN)6] solution (1% w/v). The tubes were sealed and incubated for 20 min in a water bath at 50 °C. After cooling to room temperature, 500 µL of trichloroacetic acid (10% w/w) was added to all test tubes The resulting mixtures were left for 0.5 h at room temperature. Subsequently, 250 µL of the resulting solutions were mixed with 140 µL of FeCl3 solution (0.1% w/v) and 1000 µL of distilled water, and the absorbance of the resulting solutions was determined at λ = 695 nm.

Data set [9] in a line: Ferric-Reducing Antioxidant Potential (FRAP) assay. The data set is classed as biochemical. The note with it: pH 3.6, 593 nm. The procedure:
as §5
The Ferric-Reducing Antioxidant Potential (FRAP) assay relies on the transfer of an electron from the antioxidant being assessed to Fe^3+, resulting in its conversion to Fe^2+. The resulting Fe^2+ ions are then chelated by 2,4,6-tripyridyl-s-triazine, giving a blue-colored complex, with an absorption maximum at λ = 593 nm. A 500 µL amount of the solutions (0.2 mM) of compounds and reference compounds was mixed with 600 µL FRAP reagent and 1200 µL acetate buffer (0.3 M, pH = 3.6), according to previous reports. The resulting solutions were mixed well in the dark, and their absorbance was measured spectrophotometrically.

In turn, `Oc1ccc(-c2csc(-c3csc(-c4ccccc4)n3)n2)cc1O` (as salt: hydrochloride) [Compound 3i, 4-(2′-phenyl-[2,4′-bithiazol]-4-yl)benzene-1,2-diol] gave a melting point of 258 °C.

`Oc1ccc(-c2csc(-c3ccncc3)n2)cc1O` (as salt: hydrochloride) [Compound 3g, 4-(2-(pyridin-4-yl)thiazol-4-yl)benzene-1,2-diol] registered a melting point of 240 °C.

For `COc1cc(-c2nc(-c3ccc(O)c(O)c3)cs2)cc(OC)c1OC` (as salt: hydrochloride) [Compound 3f, 4-(2-(3,4,5-trimethoxyphenyl)thiazol-4-yl)benzene-1,2-diol], the melting point was 219 °C.

As to `Cc1cccc(-c2nc(-c3ccc(O)c(O)c3)cs2)c1` (as salt: hydrochloride) [Compound 3e, 4-(2-(m-tolyl)thiazol-4-yl)benzene-1,2-diol], the melting point was determined as 196 °C.

As for `Cc1ccc(-c2nc(-c3nc(-c4ccc(O)c(O)c4)cs3)cs2)cc1` (as salt: hydrochloride) [Compound 3j, 4-(2′-(p-tolyl)-[2,4′-bithiazol]-4-yl)benzene-1,2-diol], the melting point is 265 °C.

In the case of `COc1cc(-c2nc(-c3ccc(O)c(O)c3)cs2)cc(OC)c1OC` [Compound 3f, 4-(2-(3,4,5-trimethoxyphenyl)thiazol-4-yl)benzene-1,2-diol], the 50% inhibitory concentration (IC50) was 8.76 µM in data set [1] (Homo sapiens, A549, 48 h exposure, Alamar Blue, read-out: IC50 (±SD) A549); 82.6 µM in data set [2]; 54.6 µM in [4]; 13.4 µM in data set [6]. The “Selectivity Index” value in data set [1] (ratio between the calculated IC50 on BJ and A549 cells, 48 h) is listed as 9.43. In [3], the “TAC Eq Ascorbic Acid” value came out at 1.22 Eq Ascorbic Acid. For the same compound, in data set [5], the “CUPRAC Eq Trolox” value amounted to 3.05 Eq Trolox. The “ferrous ion chelation percent” value in data set [7] (0.25 µM), in [7] (0.5 µM), in data set [7] (1 µM), in [7] (1.5 µM) and in data set [7] (2 µM) was “-” each time. Moreover, the “RP Eq Ascorbic Acid” value in [8] is given as 1.75 Eq Ascorbic Acid. In addition, the “RP Eq Trolox” value in data set [8] is reported as 1.46 Eq Trolox. Also, the “FRAP Eq Trolox” value in data set [9] amounted to 1.06 Eq Trolox.

`Oc1ccc(-c2csc(-c3ccccn3)n2)cc1O` (as salt: hydrochloride) [Compound 3h, 4-(2-(pyridin-2-yl)thiazol-4-yl)benzene-1,2-diol]: the melting point turned out to be 230 °C.

In general, melting point refers to the temperature, or range, at which the solid turns liquid. As a reminder, the IC50 is the point on the concentration scale where inhibition reaches its midpoint.
